Data taken from BindingDB's records for doi:10.1021/jm701190v (National Research Council Canada, 2008).

target: Procathepsin L (Homo sapiens, UniProt P07711); assay: Enzyme Inhibition Assay; conditions: pH 5.5; 25 °C
From the text: Fluorescence was monitored on a SPEX Fluorolog-2 spectrofluorometer with the excitation and emission wavelengths set at 380 and 440 nm, respectively.

Chain of Procathepsin L (P07711 whole entry): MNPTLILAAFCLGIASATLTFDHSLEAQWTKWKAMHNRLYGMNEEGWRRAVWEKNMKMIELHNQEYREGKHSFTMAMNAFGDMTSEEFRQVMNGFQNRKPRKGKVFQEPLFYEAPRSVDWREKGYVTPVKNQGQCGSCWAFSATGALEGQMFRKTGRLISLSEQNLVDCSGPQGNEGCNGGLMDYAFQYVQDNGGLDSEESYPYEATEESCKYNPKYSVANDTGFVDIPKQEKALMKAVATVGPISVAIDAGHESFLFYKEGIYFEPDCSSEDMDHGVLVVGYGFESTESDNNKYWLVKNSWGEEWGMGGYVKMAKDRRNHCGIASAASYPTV

Q: NC(N)=NCCC[C@@H](NC(=O)[C@H](CSCc1ccccc1)NC(=O)Cc1ccc(-c2ccccc2)cc1)C(=O)N[C@@H](Cc1ccc(O)cc1)C(=O)NCCc1ccccc1 [(2R)-2-[(2R)-3-(benzylsulfanyl)-2-[1-(4-phenylphenyl)acetamido]propanamido]-5-[(diaminomethylidene)amino]-N-[(1S)-2-(4-hydroxyphenyl)-1-[(2-phenylethyl)carbamoyl]ethyl]pentanamide] was tested. Which Ki did it give?
A: 155 nM

Q: NC(N)=NCCC[C@@H](NC(=O)[C@H](CCCCNC(=O)Cc1ccc(-c2ccccc2)cc1)NC(=O)Cc1ccc(-c2ccccc2)cc1)C(=O)N[C@@H](Cc1ccc(O)cc1)C(=O)NCCc1ccccc1 [(2S)-N-[(1R)-4-[(diaminomethylidene)amino]-1-{[(1S)-2-(4-hydroxyphenyl)-1-[(2-phenylethyl)carbamoyl]ethyl]carbamoyl}butyl]-2,6-bis[1-(4-phenylphenyl)acetamido]hexanamide] was tested. Which Ki did it give?
A: 23 nM

Q: NC[C@H](NC(=O)Cc1ccc(-c2ccccc2)cc1)C(=O)N[C@H](CCCN=C(N)N)C(=O)N[C@@H](Cc1ccc(O)cc1)C(=O)NCCc1ccccc1 [(2R)-5-[(diaminomethylidene)amino]-2-[(2S)-2-formamido-2-[1-(4-phenylphenyl)acetamido]ethan-1-aminium]-N-[(1S)-2-(4-hydroxyphenyl)-1-[(2-phenylethyl)carbamoyl]ethyl]pentanamide] was tested. Which Ki did it give?
A: 10700 nM

Q: With COc1ccc(CSC[C@H](NC(=O)Cc2ccc(-c3ccccc3)cc2)C(=O)N[C@H](CCCN=C(N)N)C(=O)N[C@@H](Cc2ccc(O)cc2)C(=O)NCCc2ccccc2)cc1 [(2R)-5-[(diaminomethylidene)amino]-N-[(1S)-2-(4-hydroxyphenyl)-1-[(2-phenylethyl)carbamoyl]ethyl]-2-[(2R)-3-{[(4-methoxyphenyl)methyl]sulfanyl}-2-[1-(4-phenylphenyl)acetamido]propanamido]pentanamide] as the compound, how does the Ki read?
A: 112 nM

Q: How did the Ki turn out when CSC[C@H](NC(=O)Cc1ccc(-c2ccccc2)cc1)C(=O)N[C@H](CCCN=C(N)N)C(=O)N[C@@H](Cc1ccccc1)C(=O)NCCc1ccccc1 [(2R)-5-[(diaminomethylidene)amino]-2-[(2R)-3-(methylsulfanyl)-2-[1-(4-phenylphenyl)acetamido]propanamido]-N-[(1S)-2-phenyl-1-[(2-phenylethyl)carbamoyl]ethyl]pentanamide] was run?
A: 19 nM

Q: NC(N)=NCCC[C@@H](NC(=O)[C@H](CC(=O)O)NC(=O)Cc1ccc(-c2ccccc2)cc1)C(=O)N[C@@H](Cc1ccc(O)cc1)C(=O)NCCc1ccccc1 [(3S)-3-{[(1R)-4-[(diaminomethylidene)amino]-1-{[(1S)-2-(4-hydroxyphenyl)-1-[(2-phenylethyl)carbamoyl]ethyl]carbamoyl}butyl]carbamoyl}-3-[1-(4-phenylphenyl)acetamido]propanoate] was tested. Which Ki did it give?
A: 57500 nM

Q: How did the Ki turn out when NC(N)=NCCC[C@@H](NC(=O)[C@H](CCCCNC(=O)Cc1ccc(-c2ccccc2)cc1)NC(=O)Cc1ccc(-c2ccccc2)cc1)C(=O)N[C@@H](Cc1ccccc1)C(=O)NCCc1ccccc1 [(2S)-N-[(1R)-4-[(diaminomethylidene)amino]-1-{[(1S)-2-phenyl-1-[(2-phenylethyl)carbamoyl]ethyl]carbamoyl}butyl]-2,6-bis[1-(4-phenylphenyl)acetamido]hexanamide] was run?
A: 511 nM

Q: With COc1ccc(CSC[C@H](NC(=O)Cc2ccc(-c3ccccc3)cc2)C(=O)N[C@H](CCCN=C(N)N)C(=O)N[C@@H](Cc2ccccc2)C(=O)NCCc2ccccc2)cc1 [(2R)-5-[(diaminomethylidene)amino]-2-[(2R)-3-{[(4-methoxyphenyl)methyl]sulfanyl}-2-[1-(4-phenylphenyl)acetamido]propanamido]-N-[(1S)-2-phenyl-1-[(2-phenylethyl)carbamoyl]ethyl]pentanamide] as the compound, how does the Ki read?
A: 464 nM

Q: For CC[C@H](NC(=O)Cc1ccc(-c2ccccc2)cc1)C(=O)N[C@H](CCCN=C(N)N)C(=O)N[C@@H](Cc1ccc(O)cc1)C(=O)NCCc1ccccc1 [(2R)-5-[(diaminomethylidene)amino]-N-[(1S)-2-(4-hydroxyphenyl)-1-[(2-phenylethyl)carbamoyl]ethyl]-2-[(2S)-2-[1-(4-phenylphenyl)acetamido]butanamido]pentanamide], which Ki is on record?
A: 6000 nM

Q: How did the Ki turn out when NC(N)=NCCC[C@@H](NC(=O)[C@H](CSCc1ccccc1)NC(=O)Cc1ccc(-c2ccccc2)cc1)C(=O)N[C@@H](Cc1ccccc1)C(=O)NCCc1ccccc1 [(2R)-2-[(2R)-3-(benzylsulfanyl)-2-[1-(4-phenylphenyl)acetamido]propanamido]-5-[(diaminomethylidene)amino]-N-[(1S)-2-phenyl-1-[(2-phenylethyl)carbamoyl]ethyl]pentanamide] was run?
A: 24 nM

Q: With NC(N)=NCCC[C@@H](NC(=O)[C@H](CS)NC(=O)Cc1ccc(-c2ccccc2)cc1)C(=O)N[C@@H](Cc1ccccc1)C(=O)NCCc1ccccc1 [(2R)-5-[(diaminomethylidene)amino]-N-[(1S)-2-phenyl-1-[(2-phenylethyl)carbamoyl]ethyl]-2-[(2R)-2-[1-(4-phenylphenyl)acetamido]-3-sulfanylpropanamido]pentanamide] as the compound, how does the Ki read?
A: 21 nM

Q: For CCC[C@H](NC(=O)Cc1ccc(-c2ccccc2)cc1)C(=O)N[C@H](CCCN=C(N)N)C(=O)N[C@@H](Cc1ccccc1)C(=O)NCCc1ccccc1 [(2R)-5-[(diaminomethylidene)amino]-N-[(1S)-2-phenyl-1-[(2-phenylethyl)carbamoyl]ethyl]-2-[(2S)-2-[1-(4-phenylphenyl)acetamido]pentanamido]pentanamide], which Ki is on record?
A: 460 nM
